In patent US10385070B2, “Chroman-spirocyclic piperidine amides as modulators of ion channels” (VERTEX PHARMACEUTICALS INCORPORATED, priority 2011, dated 2019):

Molecular target: human NaV subtype, like NaV 1.7 (Homo sapiens, UniProt Q15858)
Assay: E-VIPR optical membrane potential assay with electrical stimulation
Assay type: cell-based
Details: active against one or more sodium channels; assay and NaV subtype not specified for Table 3; read-out: IC50 Binned Activity Data
From the text: Assays for Detecting and Measuring NaV Inhibition Properties of Compound E-VIPR Optical Membrane Potential Assay Method with Electrical Stimulation
Sodium channels are voltage-dependent proteins that can be activated by inducing membrane voltage changes by applying electric fields. The electrical stimulation instrument and methods of use are described in Ion Channel Assay Methods PCT/US01/21652, herein incorporated by reference and are referred to as E-VIPR. The instrument comprises a microtiter plate handler, an optical system for exciting the coumarin dye while simultaneously recording the coumarin and oxonol emissions, a waveform generator, a current- or voltage-controlled amplifier, and a device for inserting electrodes in well. Under integrated computer control, this instrument passes user-programmed electrical stimulus protocols to cells within the wells of the microtiter plate.
24 hours before the assay on E-VIPR, HEK cells expressing human NaV subtype, like NaV 1.7, are seeded in 384-well poly-lysine coated plates at 15,000-20,000 cells per well. Other subtypes are performed in an analogous mode in a cell line expressing the NaV of interest. HEK cells are grown in media (exact composition is specific to each cell type and NaV subtype) supplemented with 10% FBS (Fetal Bovine Serum, qualified; GibcoBRL #16140-071) and 1% Pen-Strep (Penicillin-Streptomycin; GibcoBRL #15140-122). Cells are grown in vented cap flasks, in 90% humidity and 10% CO2, to 100% confluence. They are usually split by trypsinization 1:10 or 1:20, depending on scheduling needs, and grown for 2-3 days before the next split.
100 mg/mL Pluronic F-127 (Sigma #P2443), in dry DMSO
Compound Plates: 384-well round bottom plate, e.g. Corning 384-well Polypropylene Round Bottom #3656
Cell Plates: 384-well tissue culture treated plate, e.g. Greiner #781091-1B
Bath1 buffer. Glucose 10 mM (1.8 g/L), Magnesium Chloride (Anhydrous), 1 mM (0.095 g/L), Calcium Chloride, 2 mM (0.222 g/L), HEPES 10 mM (2.38 g/L), Potassium Chloride, 4.5 mM (0.335 g/L), Sodium Chloride 160 mM (9.35 g/L).
Hexyl Dye Solution: Bath1 Buffer+0.5% β-cyclodextrin (make this prior to use, Sigma #C4767), 8 μM CC2-DMPE+2.5 μM DiSBAC6(3). To make the solution Add volume of 10% Pluronic F127 stock equal to volumes of CC2-DMPE+DiSBAC6(3). The order of preparation is first mix Pluronic and CC2-DMPE, then add DiSBAC6(3) while vortexing, then add Bath1+β-Cyclodextrin.
1) Pre-spot compounds (in neat DMSO) into compound plates. Vehicle control (neat DMSO), the positive control (20 mM DMSO stock tetracaine, 125 μM final in assay) and test compounds are added to each well at 160× desired final concentration in neat DMSO. Final compound plate volume will be 80 μL (80-fold intermediate dilution from 1 μL DMSO spot; 160-fold final dilution after transfer to cell plate). Final DMSO concentration for all wells in assay is 0.625%.
2) Prepare Hexyl Dye Solution.
3) Prepare cell plates. On the day of the assay, medium is aspirated and cells are washed three times with 100 μL of Bath1 Solution, maintaining 25 μL residual volume in each well.
4) Dispense 25 μL per well of Hexyl Dye Solution into cell plates. Incubate for 20-35 minutes at room temp or ambient conditions.
5) Dispense 80 μL per well of Bath1 into compound plates. Acid Yellow-17 (1 mM) is added and Potassium Chloride can be altered from 4.5 to 20 mM depending on the NaV subtype and assay sensitivity.
6) Wash cell plates three times with 100 μL per well of Bath1, leaving 25 μL of residual volume. Then transfer 25 uL per well from Compound Plates to Cell Plates. Incubate for 20-35 minutes at room temp/ambient condition
7) Read Plate on E-VIPR. Use the current-controlled amplifier to deliver stimulation wave pulses for typically 9 seconds and a scan rate of 400 Hz. A pre-stimulus recording is performed for 0.5 seconds to obtain the un-stimulated intensities baseline. […]

Sequence of human NaV subtype, like NaV 1.7 (Q15858 whole entry): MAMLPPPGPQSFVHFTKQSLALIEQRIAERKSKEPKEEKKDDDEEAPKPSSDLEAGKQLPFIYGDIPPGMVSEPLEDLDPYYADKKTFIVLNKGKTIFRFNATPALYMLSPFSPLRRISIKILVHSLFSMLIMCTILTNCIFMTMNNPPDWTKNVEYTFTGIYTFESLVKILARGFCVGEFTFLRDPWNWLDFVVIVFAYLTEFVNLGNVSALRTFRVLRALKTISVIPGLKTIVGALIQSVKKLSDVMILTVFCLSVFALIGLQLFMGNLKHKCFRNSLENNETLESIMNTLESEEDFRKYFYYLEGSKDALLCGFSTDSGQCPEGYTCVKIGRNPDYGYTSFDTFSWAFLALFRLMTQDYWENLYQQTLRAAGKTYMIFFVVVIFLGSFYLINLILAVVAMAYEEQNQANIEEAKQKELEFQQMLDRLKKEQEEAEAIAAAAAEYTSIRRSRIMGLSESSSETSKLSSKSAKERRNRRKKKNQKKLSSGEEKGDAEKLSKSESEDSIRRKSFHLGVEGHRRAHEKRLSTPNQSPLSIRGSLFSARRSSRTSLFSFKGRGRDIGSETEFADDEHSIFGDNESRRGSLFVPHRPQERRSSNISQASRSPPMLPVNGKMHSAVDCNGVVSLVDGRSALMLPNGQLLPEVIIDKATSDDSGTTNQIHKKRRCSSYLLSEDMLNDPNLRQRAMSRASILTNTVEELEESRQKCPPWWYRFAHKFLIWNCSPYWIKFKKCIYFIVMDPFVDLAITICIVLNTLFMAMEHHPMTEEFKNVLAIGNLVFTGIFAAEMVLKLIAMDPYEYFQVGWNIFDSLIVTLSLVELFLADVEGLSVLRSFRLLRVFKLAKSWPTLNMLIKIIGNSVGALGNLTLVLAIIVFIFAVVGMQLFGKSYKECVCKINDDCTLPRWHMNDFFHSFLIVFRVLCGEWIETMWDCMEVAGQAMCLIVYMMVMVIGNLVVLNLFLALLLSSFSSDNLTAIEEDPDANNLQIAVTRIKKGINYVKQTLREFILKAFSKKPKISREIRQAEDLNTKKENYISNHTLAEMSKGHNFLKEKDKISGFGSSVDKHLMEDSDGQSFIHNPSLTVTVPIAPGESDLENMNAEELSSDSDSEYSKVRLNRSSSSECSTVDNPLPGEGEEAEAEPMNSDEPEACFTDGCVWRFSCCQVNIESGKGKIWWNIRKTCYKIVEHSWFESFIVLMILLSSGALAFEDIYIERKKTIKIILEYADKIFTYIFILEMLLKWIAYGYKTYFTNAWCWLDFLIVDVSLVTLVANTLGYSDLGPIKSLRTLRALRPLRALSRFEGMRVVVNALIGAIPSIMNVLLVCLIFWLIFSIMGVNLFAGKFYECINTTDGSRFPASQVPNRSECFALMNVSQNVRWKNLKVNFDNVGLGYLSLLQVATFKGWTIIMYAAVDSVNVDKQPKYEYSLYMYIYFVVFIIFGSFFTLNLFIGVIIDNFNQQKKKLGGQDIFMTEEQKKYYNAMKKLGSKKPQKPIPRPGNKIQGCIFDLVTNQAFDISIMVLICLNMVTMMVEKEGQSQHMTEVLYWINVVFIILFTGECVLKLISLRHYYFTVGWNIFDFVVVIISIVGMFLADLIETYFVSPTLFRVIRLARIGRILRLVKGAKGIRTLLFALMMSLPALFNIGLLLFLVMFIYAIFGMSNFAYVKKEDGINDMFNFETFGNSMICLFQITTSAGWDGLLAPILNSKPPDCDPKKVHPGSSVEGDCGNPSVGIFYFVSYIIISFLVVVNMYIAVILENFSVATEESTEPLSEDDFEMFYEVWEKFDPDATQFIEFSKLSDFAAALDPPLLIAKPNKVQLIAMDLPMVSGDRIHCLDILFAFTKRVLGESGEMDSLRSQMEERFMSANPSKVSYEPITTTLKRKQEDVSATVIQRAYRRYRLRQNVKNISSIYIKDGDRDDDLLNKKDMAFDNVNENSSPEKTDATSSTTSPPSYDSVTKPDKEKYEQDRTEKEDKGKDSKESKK

Compound	IC50
COc1cc(C(=O)N2CCC3(CC2)CC(Oc2cccnc2)c2ccccc2O3)ccc1OC(C)C (stereo not shown) [Compound 145]	≤ 2000 nM
Cc1cc(C(=O)N2CCC3(CC2)C[C@@H](OC(C)C)c2cc(F)ccc2O3)ccc1S(=O)(=O)C(C)C [Compound 13]	≤ 2000 nM
CC1CCN(c2ccc(C(=O)N3CCC4(CC3)C[C@@H](OC(C)C)c3cc(F)ccc3O4)nc2)CC1 [Compound 61]	≤ 2000 nM
CCOc1ccc(C(=O)N2CCC3(CC2)C[C@@H](OC(C)C)c2cc(F)ccc2O3)nc1 [Compound 129]	2000 to 5000 nM
CC(C)Nc1ccc(C(=O)N2CCC3(CC2)C[C@@H](OC(C)C)c2cc(F)ccc2O3)nc1 [Compound 46]	≤ 2000 nM
Cc1cc(C(=O)N2CCC3(CC2)C[C@@H](OC(C)C)c2cc(F)ccc2O3)ccc1S(C)(=O)=O [Compound 156]	≤ 2000 nM
CC(C)O[C@@H]1CC2(CCN(C(=O)c3ccc(S(=O)(=O)CC4CCC4)cn3)CC2)Oc2ccc(F)cc21 [Compound 58]	≤ 2000 nM
COc1cc(C(=O)N2CCC3(CC2)CC(OC)c2ccccc2S3(=O)=O)ccc1OC(C)C (stereo not shown) [Compound 109]	> 5000 nM
CNCc1cc(C(=O)N2CCC3(CC2)C[C@@H](OC(C)C)c2cc(F)ccc2O3)ccc1OC(C)C [Compound 15]	> 5000 nM
CCOC1CC2(CCN(C(=O)c3ccc(OC(C)C)c(OC)c3)CC2)S(=O)(=O)c2ccccc21 (stereo not shown) [Compound 24]	≤ 2000 nM
COc1cc(C(=O)N2CCC3(CC2)Oc2ccccc2CC3OC)ccc1OC(C)C (stereo not shown) [Compound 165]	≤ 2000 nM
COc1cc(C(=O)N2CCC3(CC2)Oc2ccccc2C(OC(C)C)C3C)ccc1OC(C)C (stereo not shown) [Compound 94]	≤ 2000 nM
CC(C)OC1CC2(CCN(C(=O)c3ccc(S(=O)(=O)C(C)C)c(C#N)c3)CC2)Oc2ccc(F)cc21 (stereo not shown) [Compound 29]	≤ 2000 nM
CC(C)O[C@@H]1CC2(CCN(C(=O)c3ccc(C(C)(C)O)c(F)c3)CC2)Oc2cc(F)ccc21 [Compound 130]	2000 to 5000 nM
Cc1cc(C(=O)N2CCC3(CC2)CC(O)c2c(F)cccc2O3)ccc1OC(C)C (stereo not shown) [Compound 138]	≤ 2000 nM
CC(C)Oc1ccc(C(=O)N2CCC3(CC2)C[C@@H](OC(C)C)c2cc(F)ccc2O3)nc1 [Compound 139]	≤ 2000 nM
CC(C)O[C@@H]1CC2(CCN(C(=O)c3ccc(N4CCC[C@H]4C)cn3)CC2)Oc2ccc(F)cc21 [Compound 75]	≤ 2000 nM
CC(C)O[C@@H]1CC2(CCN(C(=O)c3ccc(S(=O)(=O)C(C)(C)C)cc3)CC2)Oc2ccc(F)cc21 [Compound 59]	≤ 2000 nM
COc1cc(O)ccc1C(=O)N1CCC2(CC1)C[C@@H](OC(C)C)c1ccccc1O2 [Compound 170]	≤ 2000 nM
COCOC1Cc2ccccc2OC12CCN(C(=O)c1ccc(OC(C)C)c(OC)c1)CC2 (stereo not shown) [Compound 135]	≤ 2000 nM
CC(C)O[C@@H]1CC2(CCN(C(=O)c3ccc(N(C)CCN(C)C)cn3)CC2)Oc2ccc(F)cc21 [Compound 97]	> 5000 nM
CCOc1ccc(C(=O)N2CCC3(CC2)C[C@@H](OC(C)C)c2ccccc2O3)cc1F [Compound 125]	≤ 2000 nM
COc1ccc(C(=O)N2CCC3(CC2)CC(c2ccccc2)c2ccccc2O3)cc1OC (stereo not shown) [Compound 18]	≤ 2000 nM
CC(C)OC1CC2(CCN(C(=O)c3ccccc3OC(F)(F)F)CC2)Oc2ccccc21 (stereo not shown) [Compound 157]	≤ 2000 nM
COc1cc(C(=O)N2CCC3(CC2)C[C@@H](OC(C)C)c2ccccc2O3)ccc1C(C)(C)CO [Compound 160]	≤ 2000 nM
CC(C)O[C@@H]1CC2(CCN(C(=O)c3ccc(N(C)C(C)C)cn3)CC2)Oc2ccc(F)cc21 [Compound 16]	≤ 2000 nM
COc1cc(C(=O)N2CCC3(CC2)CC(NC(C)C)c2ccccc2O3)ccc1OC(C)C (stereo not shown) [Compound 47]	> 5000 nM
COc1cc(C(=O)N2CCC3(CC2)CC(OC(C)C)c2ccccc2O3)ccc1C(C)(C)CO (stereo not shown) [Compound 62]	≤ 2000 nM
CCO[C@@H]1CC2(CCN(C(=O)c3ccc(S(=O)(=O)CC(C)C)cc3)CC2)Oc2ccc(F)cc21 [Compound 5]	≤ 2000 nM
COc1cc(C(=O)N2CCC3(CC2)CC(OC(C)C)c2ccccc2O3)ccc1C(C)(C)C (stereo not shown) [Compound 60]	≤ 2000 nM

Continued, values first:

IC50	Compound
≤ 2000 nM	COc1cc(C(=O)N2CCC3(CC2)C[C@H](OC(C)C)c2ccccc2O3)ccc1C(C)(C)O [Compound 166]
≤ 2000 nM	CCC1COCCN1c1ccc(C(=O)N2CCC3(CC2)C[C@@H](OC(C)C)c2cc(F)ccc2O3)nc1 (stereo partly shown) [Compound 93]
≤ 2000 nM	Cc1cc(C(=O)N2CCC3(CC2)CC(OC(C)C)c2cc(C#N)ccc2O3)ccc1C(C)(C)O (stereo not shown) [Compound 43]
≤ 2000 nM	COc1cc(C(=O)N2CCC3(CC2)C[C@@H](OC(C)C)c2cc(F)ccc2O3)ccc1OC(F)F [Compound 79]
≤ 2000 nM	Cc1cc(C(=O)N2CCC3(CC2)C[C@@H](O)c2cc(F)ccc2O3)ccc1OC(C)C [Compound 122]
> 5000 nM	CC(C)O[C@@H]1CC2(CCN(C(=O)c3ccc(N4CC(S(C)(=O)=O)C4)cn3)CC2)Oc2ccc(F)cc21 [Compound 103]
≤ 2000 nM	CC(C)OC1CC2(CCN(C(=O)c3ccc(S(=O)(=O)C(C)C)cc3)CC2)Oc2ccccc21 (stereo not shown) [Compound 119]
≤ 2000 nM	Cc1nc(C(=O)N2CCC3(CC2)C[C@@H](OC(C)C)c2ccccc2O3)ccc1OC(C)C [Compound 80]
≤ 2000 nM	CC(C)O[C@@H]1CC2(CCN(C(=O)c3ccc(C(C)(C)O)c(F)c3)CC2)Oc2ccc(F)cc21 [Compound 48]
≤ 2000 nM	COc1cc(C(=O)N2CCC3(CC2)C[C@@H](OC(C)C)c2ccccc2O3)ccc1OC(C)C [Compound 114]
≤ 2000 nM	CC(C)Oc1ccc(C(=O)N2CCC3(CC2)C[C@@H](OC(C)C)c2cc(F)ccc2O3)cc1C#N [Compound 164]
≤ 2000 nM	CC(C)O[C@@H]1CC2(CCN(C(=O)c3ccc(N4CCOCC4)cn3)CC2)Oc2ccc(F)cc21 [Compound 52]
≤ 2000 nM	CC(C)O[C@@H]1CC2(CCN(C(=O)c3ccc(NS(=O)(=O)C(C)C)cc3)CC2)Oc2ccc(F)cc21 [Compound 19]
≤ 2000 nM	COc1cc(C(=O)N2CCC3(CC2)C[C@@H](OC(C)C)c2ccccc2O3)ccc1O [Compound 136]
≤ 2000 nM	CC(C)OC1CC2(CCN(C(=O)c3ccccc3OC(F)F)CC2)Oc2ccccc21 (stereo not shown) [Compound 88]
2000 to 5000 nM	CC(C)O[C@H]1CC2(CCN(C(=O)c3ccc(C(C)(C)O)cc3)CC2)Oc2ccccc21 [Compound 115]
> 5000 nM	COc1cc(C(=O)N2CCC3(CC2)CC(OCCS(C)(=O)=O)c2ccccc2O3)ccc1OC(C)C (stereo not shown) [Compound 86]
> 5000 nM	CC(C)S(=O)(=O)c1ccc(C(=O)N2CCC3(CCc4ccccc4O3)CC2)cc1 [Compound 39]
≤ 2000 nM	Cc1cc(C(=O)N2CCC3(CC2)CC(OC(C)C)c2ccccc2O3)ccc1OC(C)C (stereo not shown) [Compound 141]
≤ 2000 nM	CC(C)O[C@@H]1CC2(CCN(C(=O)c3ccc(SC(C)C)cc3)CC2)Oc2ccc(F)cc21 [Compound 53]
≤ 2000 nM	COc1ccccc1C(=O)N1CCC2(CC1)CC(OC)c1ccccc1O2 (stereo not shown) [Compound 113]
≤ 2000 nM	CC(C)Oc1ccc(C(=O)N2CCC3(CC2)CC(OC(C)C)c2ccccc2S3(=O)=O)cc1 (stereo not shown) [Compound 99]
